{
  "source": "patent US10006044B2",
  "about": "“Soybean event SYHT04R and compositions and methods for detection thereof” (Syngenta Participations AG, priority 2010, dated 2018)",
  "assay_type_in_all_cases": "in vivo, Glycine max",
  "key": {"[1]": {"system": "Soybean event SYHT04R", "experiment": "Yield of soybean event SYHT04R sprayed with mesotrione versus the event unsprayed", "conditions": "for average yield advantage versus unsprayed: SYHT04R in several elite soybean genotypes, additional replicated trials", "method": "This observation has been made during multiple seasons of replicated agronomic and efficacy trials conducted on the STYHT04R event in the genotype ‘Jack.’ In a representative study, SYHT04R was tested in twenty Midwestern locations."}, "[2]": {"system": "non-transgenic soybean line Jack", "experiment": "Field efficacy: leaf injury after mesotrione treatment, control line", "conditions": "210 g ai/ha mesotrione at V2/V3 stage, % of leaves showing injury, 9 US locations", "method": "(§1) SYH[…] soybean plants were tested for efficacy against mesotrione in 9 locations in the United States. The non-transgenic soybean line Jack was used as a control. […]"}, "[3]": {"system": "event SYHT04R", "experiment": "Herbicide tolerance performance of transgenic seeds and progeny plants", "conditions": "from a population of about 90 transformants", "source_text": "After plants became established in the soil and new growth appeared (˜1-2 weeks), plants were sampled and tested for the presence of desired transgene by TAQMAN® analysis using appropriate probes for the HPPD genes or promoters. Positive plants were transplanted into 4″ square pots containing Fafard #3 soil. Sierra 17-6-12 slow release fertilizer was incorporated into the soil at the recommended rate. The plants were then relocated into a standard greenhouse to acclimatize (˜1 week). The environmental conditions were: 27° C. day; 21° C. night; 14 hour photoperiod (with supplemental light); ambient humidity. After acclimatizing (˜1 week), the plants were sampled and tested in detail for the presence and copy number of inserted transgenes. Transgenic soybean plants were grown to maturity for T1 seed production. T1 plants were grown up, and after TAQMAN® analysis, homozygous plants were grown for seed production. Transgenic seeds and progeny plants were used to further evaluate their herbicide tolerance performance and molecular characteristics."}, "[4]": {"system": "SYHT04R soybean plants", "experiment": "Field efficacy: leaf injury after mesotrione treatment, event SYHT04R", "conditions": "line SYHT04R; 210 g ai/ha mesotrione at V2/V3 stage; % of leaves showing injury; 9 US locations", "method": "as §1"}},
  "data": [
    {"smiles": "CS(=O)(=O)c1ccc(C(=O)C2C(=O)CCCC2=O)c([N+](=O)[O-])c1", "note": "[mesotrione]", "values": [
      {"measurement": "greater yield than the unsprayed event", "setting": "[1]; 2× application at early vegetative stage, separate study, ten locations", "result": 1.4, "unit": "bushels per acre"},
      {"measurement": "greater yield than the unsprayed event", "setting": "[1]; 2× application at early vegetative stage, twenty Midwestern locations, genotype Jack", "result": 3.7, "unit": "bushels per acre"},
      {"measurement": "greater yield than the unsprayed event", "setting": "[1]; 2× pre-emergence application, separate study, ten locations", "result": 3.1, "unit": "bushels per acre"},
      {"measurement": "greater yield than the unsprayed event", "setting": "[1]; 2× pre-emergence application, twenty Midwestern locations, genotype Jack", "result": 4.9, "unit": "bushels per acre"},
      {"measurement": "average yield advantage versus unsprayed", "setting": "[1]; early post-emergence application", "result": 0.6, "unit": "bushels per acre"},
      {"measurement": "average yield advantage versus unsprayed", "setting": "[1]; pre-emergence application", "result": 1.1, "unit": "bushels per acre"},
      {"measurement": "% Injury 5-11 DAT", "setting": "[2]", "result": 57, "unit": "%"},
      {"measurement": "% Injury 14-21 DAT", "setting": "[2]", "result": 78, "unit": "%"},
      {"measurement": "% Injury 25-36 DAT", "setting": "[2]", "result": 72, "unit": "%"},
      {"measurement": "mesotrione tolerance of the event", "setting": "[3]", "result": "high level of mesotrione tolerance"},
      {"measurement": "% Injury 5-11 DAT", "setting": "[4]", "result": 19, "unit": "%"},
      {"measurement": "% Injury 14-21 DAT", "setting": "[4]", "result": 10, "unit": "%"},
      {"measurement": "% Injury 25-36 DAT", "setting": "[4]", "result": 4, "unit": "%"}
    ]}
  ]
}
